Measured values from ChEMBL document CHEMBL3885861, “Open TG-GATES”.
*1 amine or outer side, *2 acyl side, *3 side chain or, on linkers, in order; H or OH if unused. Where a SMILES comes first, the peptide text is derived from it. Bridges are numbered along the chain shown (N, C = ends). [ ]: non-standard residue; d: D form. Trp(2-yl) = O=C([C@H](Cc1c([*:3])[nH]c2ccccc12)N[*:1])[*:2]; Leu(4R-OH,5-OH) = C[C@](O)(CO)C[C@H](N)C(=O)O; cisHyp = O=C(O)[C@@H]1C[C@H](O)CN1

Organism: Rattus norvegicus
Test: Open TG-GATES - Regimen: Daily Repeat
Format: toxicity, organism-based, Sprague-Dawley
Parameters: regimen Daily Repeat, gender Male, age 6 weeks
Conditions: in vivo, ip, route intraperitoneal injection; for APTT / Bas / Eos / Fbg / Hb / Ht / Lym / MCH / MCHC / MCV / Mono / Neu / PT / Plat / RBC / Ret / WBC: tissue Blood; for KIDNEY_L / KIDNEY_R / KIDNEY_TOTAL: tissue Kidney; for LIVER: tissue Liver; for A/G / ALP / ALT / AST / BUN / CRE / Ca / Cl / DBIL / GLC / IP / K / LDH / Na / PL / RALB / TBIL / TC / TG / TP / gamma-GTP: tissue Plasma
[1] = 0 mg/kg, 72 h, dose level Control, time 3 day
[2] = 0 mg/kg, […], dose level Control, time 7 day
[3] = 1 mg/kg, 72 h, dose level High, time 3 day
[4] = 1 mg/kg, […], dose level High, time 7 day

`C[C@@H]1NC(=O)[C@H](C[C@@](C)(O)CO)NC(=O)[C@@H]2Cc3c([nH]c4ccccc34)SC[C@H](NC(=O)[C@@H]([C@H](C)O)NC1=O)C(=O)N1C[C@@H](O)C[C@H]1C(=O)N[C@@H](C)C(=O)N2` [PHALLOIDIN] (cyclo(A[dT]C[cisHyp]A[Trp(2-yl)][Leu(4R-OH,5-OH)]); thioether 3-6) was tested, and the TERMINAL_BW [1] was 224.8 g, the APTT [1] was 23.1 s and the Bas [1] was 0%. It also gave an Eos [1] of 1%, a Fbg [1] of 328 mg/dL and a Hb [1] of 13 g/dL. For the same compound, the Ht [1] was 40.4%, the Lym [1] was 83% and the MCH [1] was 20.5 pg. For the same compound, the MCHC [1] was 32.2%, the MCV [1] was 63.5 fL and the Mono [1] was 2.8%. The Neu [1] was 12.6%, the PT [1] was 16.3 s and the Plat [1] was 118.5 x10_4/uL. The RBC [1] was 636.6 x10_4/ul, the Ret [1] was 6.8% and the WBC [1] was 113.9 x10_2/uL. For the same compound, the KIDNEY_L [1] was 1 g, the KIDNEY_R [1] was 1 g and the KIDNEY_TOTAL [1] was 1.9 g. For the same compound, the LIVER [1] was 10.4 g, the A/G [1] was 1.3 and the ALP [1] was 1525.8 IU/L. For the same compound, the ALT [1] was 42 IU/L, the AST [1] was 66.8 IU/L and the BUN [1] was 17.4 mg/dL. It also gave a CRE [1] of 0.2 mg/dL, a Ca [1] of 10.8 mg/dL and a Cl [1] of 105.4 meq/L. The DBIL [1] was 0 mg/dL, the GLC [1] was 201.4 mg/dL and the IP [1] was 8.4 mg/dL. For the same compound, the K [1] was 4.7 meq/L, the LDH [1] was 177.6 IU/L and the Na [1] was 140.8 meq/L. It also gave a PL [1] of 139.6 mg/dL, an RALB [1] of 3.1 g/dL and a TBIL [1] of 0 mg/dL. It also gave a TC [1] of 78 mg/dL, a TG [1] of 116.4 mg/dL and a TP [1] of 5.5 g/dL. For the same compound, the gamma-GTP [1] was 1.6 IU/L, the TERMINAL_BW [2] was 261.3 g and the APTT [2] was 23.5 s. The Bas [2] was 0%, the Eos [2] was 1% and the Fbg [2] was 322.2 mg/dL. It also gave a Hb [2] of 12.9 g/dL, a Ht [2] of 39.5% and a Lym [2] of 80%. For the same compound, the MCH [2] was 20.4 pg, the MCHC [2] was 32.6% and the MCV [2] was 62.5 fL. It also gave a Mono [2] of 1.8%, a Neu [2] of 16.2% and a PT [2] of 15.6 s. The Plat [2] was 135.8 x10_4/uL, the RBC [2] was 632.2 x10_4/ul and the Ret [2] was 6.8%. The WBC [2] was 114.9 x10_2/uL, the KIDNEY_L [2] was 1.1 g and the KIDNEY_R [2] was 1.2 g. For the same compound, the KIDNEY_TOTAL [2] was 2.3 g, the LIVER [2] was 11.8 g and the A/G [2] was 1.2. For the same compound, the ALP [2] was 1235.4 IU/L, the ALT [2] was 36.6 IU/L and the AST [2] was 63.4 IU/L. It also gave a BUN [2] of 18 mg/dL, a CRE [2] of 0.2 mg/dL and a Ca [2] of 10.4 mg/dL. For the same compound, the Cl [2] was 105.8 meq/L, the DBIL [2] was 0 mg/dL and the GLC [2] was 189.8 mg/dL. The IP [2] was 8.2 mg/dL, the K [2] was 4.4 meq/L and the LDH [2] was 160.4 IU/L. For the same compound, the Na [2] was 142.6 meq/L, the PL [2] was 130.8 mg/dL and the RALB [2] was 2.9 g/dL. It also gave a TBIL [2] of 0.008 mg/dL, a TC [2] of 75 mg/dL and a TG [2] of 88.6 mg/dL. It also gave a TP [2] of 5.4 g/dL, a gamma-GTP [2] of 2.8 IU/L and a TERMINAL_BW [3] of 218.4 g. For the same compound, the APTT [3] was 19.4 s, the Bas [3] was 0% and the Eos [3] was 1.2%. For the same compound, the Fbg [3] was 270.8 mg/dL, the Hb [3] was 13.5 g/dL and the Ht [3] was 42.3%. The Lym [3] was 78.2%, the MCH [3] was 20.3 pg and the MCHC [3] was 32%. It also gave an MCV [3] of 63.4 fL, a Mono [3] of 3.2% and a Neu [3] of 16.8%. The PT [3] was 15.5 s, the Plat [3] was 119.3 x10_4/uL and the RBC [3] was 667.2 x10_4/ul. The Ret [3] was 6.7%, the WBC [3] was 88.5 x10_2/uL and the KIDNEY_L [3] was 1.1 g. For the same compound, the KIDNEY_R [3] was 1.1 g, the KIDNEY_TOTAL [3] was 2.1 g and the LIVER [3] was 12 g. It also gave an A/G [3] of 1.1, an ALP [3] of 2057 IU/L and an ALT [3] of 49 IU/L. The AST [3] was 85.6 IU/L, the BUN [3] was 13.2 mg/dL and the CRE [3] was 0.1 mg/dL. The Ca [3] was 11.1 mg/dL, the Cl [3] was 105.4 meq/L and the DBIL [3] was 0.066 mg/dL. For the same compound, the GLC [3] was 168.8 mg/dL, the IP [3] was 8.3 mg/dL and the K [3] was 5.2 meq/L. The LDH [3] was 169.2 IU/L, the Na [3] was 140.4 meq/L and the PL [3] was 153.6 mg/dL. For the same compound, the RALB [3] was 3 g/dL, the TBIL [3] was 0.084 mg/dL and the TC [3] was 107.4 mg/dL. For the same compound, the TG [3] was 24.2 mg/dL, the TP [3] was 5.8 g/dL and the gamma-GTP [3] was 1.6 IU/L. It also gave a TERMINAL_BW [4] of 244 g, an APTT [4] of 17.6 s and a Bas [4] of 0%. It also gave an Eos [4] of 1.2%, a Fbg [4] of 254.4 mg/dL and a Hb [4] of 13.7 g/dL. For the same compound, the Ht [4] was 41.8%, the Lym [4] was 79.6% and the MCH [4] was 19.6 pg. It also gave an MCHC [4] of 32.9%, an MCV [4] of 59.6 fL and a Mono [4] of 3%. For the same compound, the Neu [4] was 15.8%, the PT [4] was 14.8 s and the Plat [4] was 150.8 x10_4/uL. The RBC [4] was 702.8 x10_4/ul, the Ret [4] was 4.1% and the WBC [4] was 147.5 x10_2/uL. The KIDNEY_L [4] was 1.1 g, the KIDNEY_R [4] was 1.1 g and the KIDNEY_TOTAL [4] was 2.2 g. For the same compound, the LIVER [4] was 13.9 g, the A/G [4] was 0.8 and the ALP [4] was 2253.4 IU/L. The ALT [4] was 86.2 IU/L, the AST [4] was 202.2 IU/L and the BUN [4] was 15 mg/dL. The CRE [4] was 0.1 mg/dL, the Ca [4] was 10.7 mg/dL and the Cl [4] was 104.6 meq/L. The DBIL [4] was 0.3 mg/dL, the GLC [4] was 177.8 mg/dL and the IP [4] was 7.3 mg/dL. It also gave a K [4] of 4.8 meq/L, an LDH [4] of 258.2 IU/L and a Na [4] of 141 meq/L. For the same compound, the PL [4] was 168 mg/dL, the RALB [4] was 2.6 g/dL and the TBIL [4] was 0.4 mg/dL. It also gave a TC [4] of 115.6 mg/dL, a TG [4] of 28.6 mg/dL and a TP [4] of 5.8 g/dL. The gamma-GTP [4] was 3.2 IU/L.
